The values below come from US20090253667A1, “18 ,21-Didesoxymacbecin Derivatives for the Treatment of Cancer” (priority 2006, published 2009).

One experiment concerns CNXF 498NL. Briefly: Monolayer proliferation assay (modified propidium iodide assay). In kind it is cell-based, human. The conditions noted are these: 4 days continuous exposure. Here is the method: (§1) In vitro evaluation of compounds for anticancer activity in a panel of human tumour cell lines in a monolayer proliferation assay were carried out at the Oncotest Testing Facility, Institute for Experimental Oncology, Oncotest GmbH, Freiburg.
(§2) The Oncotest cell lines were established from human tumor xenografts as described by Roth et al., (1999). The origin of the donor xenografts was described by Fiebig et al., (1999). Other cell lines were either obtained from the NCI (DU145, MCF-7) or purchased from DSMZ, Braunschweig, Germany.
(§3) All cell lines, unless otherwise specified, were grown at 37° C. in a humidified atmosphere (95% air, 5% CO2) in a ‘ready-mix’ medium containing RPMI 1640 medium, 10% fetal calf serum, and 0.1 mg/mL gentamicin (PAA, Cölbe, Germany).
(§4) A modified propidium iodide assay was used to assess the effects of the test compound(s) on the growth of human tumour cell lines (Dengler et al., (1995)).
(§5) Briefly, cells were harvested from exponential phase cultures by trypsinization, counted and plated in 96 well flat-bottomed microtitre plates at a cell density dependent on the cell line (5-10.000 viable cells/well). After 24 h recovery to allow the cells to resume exponential growth, 0.010 mL of culture medium (6 control wells per plate) or culture medium containing the 18,21-didesoxymacbecin analogue was added to the wells. Each concentration was plated in triplicate. Compounds were applied in five concentrations (100; 10; 1; 0.1 and 0.01 μg/ml). Following 4 days of continuous exposure, cell culture medium with or without test compound was replaced by 0.2 mL of an aqueous propidium iodide (PI) solution (7 mg/L). To measure the proportion of living cells, cells may be permeabilized by freezing the plates. After thawing the plates, fluorescence was measured using the Cytofluor 4000 microplate reader (excitation 530 nm, emission 620 nm), giving a direct relationship to the total number of viable cells. Growth inhibition may be expressed as treated/control×100 (% T/C). This can be plotted as a graph of % T/C against concentration of test compound applied, which can then be used to calculate the concentration necessary to inhibit cell growth by 70% (IC70).
(§6) In vitro evaluation of the test compounds for anticancer activity in a panel of human tumour cell lines in a monolayer proliferation assay was carried out as described in the general methods using a modified propidium iodide assay.

A further experiment deals with MEXF 394NL. The experiment is described as above. The class given is cell-based, human. The conditions noted are these: 4 days continuous exposure. The procedure: as §1, §2, §3, §4, §5, §6
The test system of the next experiment is CXF HT29. Described as above. In kind it is cell-based, human. The conditions noted are these: 4 days continuous exposure. The procedure:
as §1, §2, §3, §4, §5, §6

The next experiment deals with LXF 1121L. Described as above. The class given is cell-based, human. Conditions: 4 days continuous exposure. Here is the method:
as §1, §2, §3, §4, §5, §6

The next experiment concerns DU145. The description is as above. Conditions: 4 days continuous exposure. The class given is cell-based, human. The procedure: as §1, §2, §3, §4, §5, §6
For a further experiment, the system named is MCF-7. Described as above. In kind it is cell-based, human. Conditions: 4 days continuous exposure. Here is the method: as §1, §2, §3, §4, §5, §6
In the next experiment the target is Yeast Hsp90 (Saccharomyces cerevisiae, UniProt P02829). Briefly: Isothermal titration calorimetry, Kd for Hsp90 binding. Conditions: ITC at 30° C., 0.008 mM yeast Hsp90, 2% DMSO.
Experiment [1] concerns panel of human tumour cell lines. Briefly: Monolayer proliferation assay, mean IC70 across the cell line panel. The class given is cell-based. Conditions: geometric mean of all replicates across the six cell lines. The procedure:
as §1, §2, §3, §4, §5, §6

A further experiment addresses Hsp90 (Homo sapiens, UniProt P07900). Conditions: cited from earlier work.

Chain of Yeast Hsp90 (P02829 whole entry): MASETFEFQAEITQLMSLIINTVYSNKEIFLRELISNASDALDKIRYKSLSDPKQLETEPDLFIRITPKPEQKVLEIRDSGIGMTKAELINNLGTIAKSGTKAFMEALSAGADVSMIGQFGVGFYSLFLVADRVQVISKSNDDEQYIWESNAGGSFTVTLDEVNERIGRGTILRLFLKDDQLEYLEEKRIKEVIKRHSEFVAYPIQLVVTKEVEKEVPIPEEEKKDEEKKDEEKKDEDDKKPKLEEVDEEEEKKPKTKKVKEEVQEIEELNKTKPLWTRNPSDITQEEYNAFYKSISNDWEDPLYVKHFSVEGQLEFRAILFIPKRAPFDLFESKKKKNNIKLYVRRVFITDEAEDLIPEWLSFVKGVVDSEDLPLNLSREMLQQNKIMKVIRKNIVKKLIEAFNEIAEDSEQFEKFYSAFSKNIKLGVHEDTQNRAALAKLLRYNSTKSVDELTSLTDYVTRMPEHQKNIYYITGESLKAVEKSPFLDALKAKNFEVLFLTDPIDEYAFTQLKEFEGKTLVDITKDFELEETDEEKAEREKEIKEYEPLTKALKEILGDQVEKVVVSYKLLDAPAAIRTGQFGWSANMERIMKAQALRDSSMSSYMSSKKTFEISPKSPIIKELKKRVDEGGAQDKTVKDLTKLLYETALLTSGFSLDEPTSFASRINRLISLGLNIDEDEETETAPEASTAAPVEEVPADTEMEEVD
Procedure for Yeast Hsp90: Yeast Hsp90 was dialysed against 20 mM Tris pH 7.5 containing 1 mM EDTA and 5 mM NaCl and then diluted to 0.008 mM in the same buffer, but containing 2% DMSO. The test compounds were dissolved in 100% DMSO at a concentration of 50 mM and subsequently diluted to 0.1 mM in the same buffer as for Hsp90 with 2% DMSO. Heats of interaction were measured at 30° C. on a MSC system (Microcal), with a cell volume of 1.458 mL. 10 aliquots of 0.027 mL of 0.100 mM of each test compound were injected into 0.008 mM yeast Hsp90. Heats of dilution were determined in a separate experiment by injecting the test compound into buffer containing 2% DMSO, and the corrected data fitted using a nonlinear least square curve-fitting algorithm (Microcal Origin) with three floating variables: stoichiometry, binding constant and change in enthalpy of interaction.

By Kd is commonly meant a measure of binding affinity in units of concentration. Lower therefore signals tighter binding. Turning to `CO[C@H]1C[C@H](C)Cc2cccc(c2)NC(=O)/C(C)=C/CC[C@H](C)[C@@H](OC(N)=O)/C(C)=C/[C@H](C)[C@H]1O` [Compound 16, 4,5-dihydro-11-O-desmethyl-15-desmethoxy-18,21-didesoxymacbecin], the “Test/Control (%) at drug concentration” value in the experiment with CNXF 498NL (0.01 μg/mL) is listed as 100%; in the experiment on CNXF 498NL (0.1 μg/mL), 19%; with CNXF 498NL (1 μg/mL), 8%; with CNXF 498NL (10 μg/mL), 8%; in the experiment on CNXF 498NL (100 μg/mL) it was 6%; in the experiment with MEXF 394NL (0.01 μg/mL), 100%. In addition, the “Test/Control (%) at drug concentration” value in the experiment with MEXF 394NL (0.1 μg/mL) was 64%; with MEXF 394NL (1 μg/mL), 7%; with MEXF 394NL (10 μg/mL) it was 5%; in the experiment on MEXF 394NL (100 μg/mL), 3%; in the experiment on CXF HT29 (CXF HT29, 0.01 μg/mL), 106%; with CXF HT29 (CXF HT29, 0.1 μg/mL), 52%. Moreover, the “Test/Control (%) at drug concentration” value with CXF HT29 (CXF HT29, 1 μg/mL) amounted to 8%; with CXF HT29 (CXF HT29, 10 μg/mL), 7%; in the experiment on CXF HT29 (CXF HT29, 100 μg/mL), 6%; in the experiment on LXF 1121L (0.01 μg/mL), 106%; in the experiment with LXF 1121L (0.1 μg/mL), 48%; with LXF 1121L (1 μg/mL) it was 10%. Moreover, the “Test/Control (%) at drug concentration” value was found to be 7% in the experiment on LXF 1121L (10 μg/mL); 5% in the experiment with LXF 1121L (100 μg/mL); 96% in the experiment with DU145 (DU145, 0.01 μg/mL); 47% in the experiment with DU145 (DU145, 0.1 μg/mL); 8% with DU145 (DU145, 1 μg/mL); 8% with DU145 (DU145, 10 μg/mL). The “Test/Control (%) at drug concentration” value in the experiment with DU145 (DU145, 100 μg/mL) is given as 8%; in the experiment on MCF-7 (MCF-7, 0.01 μg/mL) it was 83%; with MCF-7 (MCF-7, 0.1 μg/mL), 21%; in the experiment with MCF-7 (MCF-7, 1 μg/mL) it was 10%; in the experiment on MCF-7 (MCF-7, 10 μg/mL) it was 11%; with MCF-7 (MCF-7, 100 μg/mL), 10%. This compound gave a Kd at Yeast Hsp90 of 20 nM. Also, in experiment [1], the “average IC70 value across the cell-line panel” value stood at 0.193 µg/mL.
In the case of `CO[C@H]1C[C@H](C)Cc2cc(ccc2F)NC(=O)/C(C)=C/CC[C@H](C)[C@@H](OC(N)=O)/C(C)=C/[C@H](C)[C@H]1O` [Compound 17, 4,5-dihydro-11-O-desmethyl-15-desmethoxy-17-fluoro-18,21-didesoxymacbecin], the “Test/Control (%) at drug concentration” value is 97% in the experiment with CNXF 498NL (0.01 μg/mL); 22% with CNXF 498NL (0.1 μg/mL); 7% in the experiment with CNXF 498NL (1 μg/mL); 8% with CNXF 498NL (10 μg/mL); 7% with CNXF 498NL (100 μg/mL); 101% in the experiment on MEXF 394NL (0.01 μg/mL). In addition, the “Test/Control (%) at drug concentration” value stood at 21% in the experiment with MEXF 394NL (0.1 μg/mL); 4% in the experiment on MEXF 394NL (1 μg/mL); 3% in the experiment with MEXF 394NL (10 μg/mL); 3% with MEXF 394NL (100 μg/mL); 102% in the experiment on CXF HT29 (CXF HT29, 0.01 μg/mL); 49% in the experiment on CXF HT29 (CXF HT29, 0.1 μg/mL). Moreover, the “Test/Control (%) at drug concentration” value with CXF HT29 (CXF HT29, 1 μg/mL) is 7%; with CXF HT29 (CXF HT29, 10 μg/mL), 7%; in the experiment on CXF HT29 (CXF HT29, 100 μg/mL), 8%; in the experiment with LXF 1121L (0.01 μg/mL), 100%; with LXF 1121L (0.1 μg/mL), 41%; with LXF 1121L (1 μg/mL) it was 10%. The “Test/Control (%) at drug concentration” value in the experiment on LXF 1121L (10 μg/mL) was found to be 11%; in the experiment on LXF 1121L (100 μg/mL), 11%; in the experiment with DU145 (DU145, 0.01 μg/mL) it was 93%; in the experiment on DU145 (DU145, 0.1 μg/mL) it was 7%; in the experiment with DU145 (DU145, 1 μg/mL), 8%; in the experiment on DU145 (DU145, 10 μg/mL), 10%. Besides, the “Test/Control (%) at drug concentration” value with DU145 (DU145, 100 μg/mL) turned out to be 9%; in the experiment with MCF-7 (MCF-7, 0.01 μg/mL) it was 86%; in the experiment with MCF-7 (MCF-7, 0.1 μg/mL), 20%; with MCF-7 (MCF-7, 1 μg/mL), 10%; with MCF-7 (MCF-7, 10 μg/mL), 10%; in the experiment on MCF-7 (MCF-7, 100 μg/mL), 8%. Further, binding at Yeast Hsp90 was characterised by a dissociation constant (Kd) of 19 nM. The “average IC70 value across the cell-line panel” value in experiment [1] was determined as 0.106 µg/mL.
As for `CO[C@H]1C[C@H](C)Cc2cc(O)cc(c2)NC(=O)/C=C/CC[C@H](OC)[C@@H](OC(N)=O)/C(C)=C/[C@H](C)[C@H]1O` [KOSN1559], at Hsp90 (greater binding affinity than 17-AAG), the “binding affinity to Hsp90 relative to 17-AAG” value was 8 fold. On Hsp90 (greater binding affinity than geldanamycin), the “binding affinity to Hsp90 relative to geldanamycin” value was 4 fold.
Turning to `CO[C@H]1C[C@H](C)Cc2cc(F)cc(c2)NC(=O)/C(C)=C/CC[C@H](C)[C@@H](OC(N)=O)/C(C)=C/[C@H](C)[C@H]1O` [Compound 18, 4,5-dihydro-11-O-desmethyl-15-desmethoxy-18-fluoro-18,21-didesoxymacbecin], the “Test/Control (%) at drug concentration” value is reported as 64% in the experiment on CNXF 498NL (0.01 μg/mL); 9% in the experiment with CNXF 498NL (0.1 μg/mL); 9% in the experiment on CNXF 498NL (1 μg/mL); 11% in the experiment with CNXF 498NL (10 μg/mL); 9% in the experiment on CNXF 498NL (100 μg/mL); 91% in the experiment on MEXF 394NL (0.01 μg/mL). Moreover, the “Test/Control (%) at drug concentration” value with MEXF 394NL (0.1 μg/mL) came out at 24%; with MEXF 394NL (1 μg/mL), 7%; with MEXF 394NL (10 μg/mL), 5%; in the experiment with MEXF 394NL (100 μg/mL), 4%; in the experiment on CXF HT29 (CXF HT29, 0.01 μg/mL) it was 98%; in the experiment with CXF HT29 (CXF HT29, 0.1 μg/mL) it was 14%. The “Test/Control (%) at drug concentration” value is on record as 11% in the experiment on CXF HT29 (CXF HT29, 1 μg/mL); 13% with CXF HT29 (CXF HT29, 10 μg/mL); 11% with CXF HT29 (CXF HT29, 100 μg/mL); 94% with LXF 1121L (0.01 μg/mL); 43% with LXF 1121L (0.1 μg/mL); 13% with LXF 1121L (1 μg/mL). Besides, the “Test/Control (%) at drug concentration” value with LXF 1121L (10 μg/mL) was 13%; with LXF 1121L (100 μg/mL), 12%; in the experiment on DU145 (DU145, 0.01 μg/mL), 66%; in the experiment on DU145 (DU145, 0.1 μg/mL), 9%; with DU145 (DU145, 1 μg/mL) it was 8%; in the experiment with DU145 (DU145, 10 μg/mL), 9%. Moreover, the “Test/Control (%) at drug concentration” value in the experiment on DU145 (DU145, 100 μg/mL) is 6%; in the experiment with MCF-7 (MCF-7, 0.01 μg/mL), 77%; with MCF-7 (MCF-7, 0.1 μg/mL), 27%; with MCF-7 (MCF-7, 1 μg/mL) it was 12%; in the experiment on MCF-7 (MCF-7, 10 μg/mL), 12%; with MCF-7 (MCF-7, 100 μg/mL), 8%. In addition, on Yeast Hsp90, the Kd came to 23.5 nM. Besides, the “average IC70 value across the cell-line panel” value in [1] was 0.077 µg/mL.
For the compound `CO[C@H]1[C@@H](OC)C[C@H](C)[C@@H](OC)C2=CC(=O)C=C(NC(=O)/C(C)=C/C=C\[C@H](C)[C@@H](OC(N)=O)/C(C)=C/[C@@H]1C)C2=O` [macbecin], the “average IC70 value across the cell-line panel” value in experiment [1] is 0.21 µg/mL.
